From patent US20230364119A1, “AUTOPHAGY ACTIVATOR” (Resonac Corporation, priority 2020, published 2023)

Columns and labels:
mTOR gene = mTOR gene expression suppression effect in human senescent fibroblasts (quantitative real-time PCR); assay type: cell-based
Protocol: (§1) Normal human fibroblasts (NB1RGB, RIKEN BRC Cell Bank) were cultured until confluent in D-MEM medium (manufactured by Sigma-Aldrich) to which 10% fetal bovine serum (manufactured by MP Biomedicals) was added. Thereafter, the cells were treated with 250 μM aqueous hydrogen peroxide for 2 hours, and cultured for 24 hours in D-MEM medium to which fresh 10% fetal bovine serum was added. The treatment with aqueous hydrogen peroxide and the cell culture operation were repeated three times, and the obtained fibroblasts were used as senescent fibroblasts.
The prepared senescent fibroblasts were prepared at a seeding density of 10000 cells/cm^2 and cultured for 24 hours in D-MEM medium (manufactured by Sigma-Aldrich) to which 10% fetal bovine serum (manufactured by MP Biomedicals) was added. Next, in Example 8, the inositol derivative A dissolved in purified water was added to the medium such that the final concentration of the inositol derivative A was 10-4% (V/V). […]
(§2) Then, using Nucleospin (registered trademark) RNA kit (manufactured by Takara Bio Inc.), RNA was extracted from senescent fibroblasts or normal human fibroblasts in each example, and cDNA was synthesized from the obtained RNA. Next, using this cDNA as a template, by quantitative real-time PCR, the expression level of mTOR gene was quantified using primers (manufactured by Takara Bio Inc.) specific to mTOR gene. […]

Beclin 1 gene = Beclin 1 gene expression promoting effect in human senescent fibroblasts (quantitative real-time PCR); assay type: cell-based
Protocol: Senescent fibroblasts were prepared by the following procedure.
as §1
The prepared senescent fibroblasts were prepared at a seeding density of 10000 cells/cm^2 and cultured for 24 hours in D-MEM medium (manufactured by Sigma-Aldrich) to which 10% fetal bovine serum (manufactured by MP Biomedicals) was added. […]
as §2, with “each” for “mTOR”, “the LC3 gene, ATG5 gene, and Beclin 1 gene, respectively.” for “mTOR gene.”

O[C@H]1[C@H](O)[C@@H](O)[C@H](O)[C@@H](O)[C@H]1O [Comparative Example 2, myo-inositol]
Relative gene expression level mTOR (mTOR gene; 24 hours, 10^−3% (V/V) inositol or inositol derivative A, with the vitamin derivative of the example where added, GAPDH-standardized, Comparative Example 3 (purified water) = 1.00): 0.95
expression level of the mTOR gene, in words (mTOR gene; compared to Comparative Example 3 (purified water only)): almost the same
Relative gene expression level Beclin 1 (Beclin 1 gene; 24 hours, 10^−3% (V/V) inositol or inositol derivative A, with the vitamin derivative of the example where added, GAPDH-standardized, Comparative Example 1 (purified water) = 1.00): 1.30
expression level of the Beclin 1 gene, in words (Beclin 1 gene; compared to Comparative Example 1 (purified water only)): more increased
